Patent publication US20050233413A1, “Neuroprotective polypeptides and methods of use” (priority 2002, published 2005)
Read-outs that look alike come from different tables or passages of the source. Where no end group is shown, it is not given here.

Experiments:
[1] = test system: Aβ and V642I-APP; type: cell-based; details: Table 5, marked **
Description: (§1) F11 cells, the hybrid of a rat embryonic-day-13 primary cultured primary neuron and a mouse neuroblastoma cell, are one of the best models for primary cultured neurons as they carry representative characteristics of primary neurons, such as generation of action potentials without differentiation by NGF [22]. They have been used in various studies of is neuronal functions. Using these cells, the underlying mechanisms for cytotoxicity by V642I-APP have well been analyzed. Cytotoxicity by V642 mutants of APP has also been confirmed in multiple different systems. F11 cells were grown in Ham's F-12 (GibcoBRL, Gaithersburg, Md.) plus 18% fetal bovine serum (FBS; Hyclone, Logan, Utah) and antibiotics, as described previously. F11 cells (7×10^4 cell/well in a 6-well plate cultured in Ham's F-12 plus 18% FBS for 12-16 hr) were transfected with plasmids encoding FAD genes by lipofection [FAD cDNA 2 μg, LipofectAMINE 4 μl, PLUS reagent 8 μl (GibcoBRL)] in the absence of serum for 3 hr, and were incubated with Ham's F-12 plus 18% FBS for 2 hr. Then, culture media were changed to Ham's F-12 plus 10% FBS with or without HN peptides, and cells were cultured for an additional 67 hr. Seventy-two hr after transfection, cell mortality was measured by Trypan blue exclusion assay, performed as follows. Cells were suspended by pipetting gently, and 50 μl of 0.4% (finally 0.08%) Trypan blue solution (Sigma, St Louis, Mo.) was mixed with 200 μl of the cell suspension at room temperature. Stained cells were counted within 3 min after the mixture with Trypan blue solution.
(§2) The primary culture of mouse cortical neurons was performed in poly-L-lysine-coated 24-well plates or 96-well plates (Sumitomo Bakelite, Akita, Japan), in the absence of serum and the presence of N2 supplement, as described previously. The purity of neurons by this method was >98%. Prepared neurons (for neurons seeded in 96-well plates: 2.5×10^4 or 5×10^4 cells/well, 100 μl culture medium/well; for neurons seeded in 24-well plates: 1.25×10^5 cells/well, 250 μl culture medium/well) were preincubated with or without 10 μM (in case for the experiment with 10 μM HN) synthetic HN for 16 hr, and treated with 25 μM Aβ in the presence or absence of 10 μM HN for 72 hr, respectively. As primary neurons were vulnerable to transient dryness during medium exchange, we treated neurons with 25 μM Aβ as follows. First, a half volume (50 μl for neurons in 96-well plates; 125 μl for neurons in 24-well plates) of old medium was discarded. Then, the same volume (50 μl for neurons in 96-well plates; 125 μl for neurons in 24-well plates) of prewarned fresh medium containing 10 μM HN and 50 μM Aβ (Aβ was directly resolved) was added to the culture. The Aβ peptides used at 25 μM to induce neurotoxicity formed aggregation in the medium during the cell culture at 37° C. for 72 hr. as described. The WST-8 cell viability assay was performed, using Cell Counting Kit-8 (Wako Pure Chemical Industries, Osaka, Japan), as described previously.
(§3) Calcein assay was performed with Calcein-AM {3′,6′-di-(O-acetyl)-2′,7′-bis [N,N-bis(carboxymethyl)aminomethyl] fluorescein, tetraacetoxymethyl ester; Dojindo}, as described previously. These assays were simultaneously performed in the experiments with neurons seeded in 96-well plates, as follows. Seventy-two hours after Aβ treatment, cells were added with the mixture of 10 μl WST-8 solution and 1 μl of 600 μM Calcein-AM. After 2 hr incubation in a CO2 incubator at 37° C., WST-8 absorbance was measured as OD450. After exchanging the medium to PBS to lower the background, Calcein-specific fluorescence (ex=485 nm, em=535 nm) was observed by fluorescence microscopy or measured by a spectrofluorometer (Wallac1420 ARVOsx Multi Label Counter). […]

[2] = test system: HN (self-dimerization); experiment: Dimerization experiment (Ni-bead precipitation of FLAG-tagged peptide by (His)6-tagged peptide); type: binding; details: Ni-bead precipitation, anti-FLAG immunoblot
Experimental: (§4) Synthetic (His)6-tagged HN derivative peptides (1 nmol) was incubated with 20 μl of Ni-NTA agarose (QIAGEN, Hilden, Germany) in a total volume of 0.5 ml of buffer A [20 mM Tris/HCl (pH8.0) and 1 mM DTT] for 1 hr at 4° C. and washed once with buffer B [20 mM Tris/HCl (pH 7.4), 1 mM DTT, and 150 mM NaCl]. Synthetic FLAG-tagged peptides (1 nmol) were mixed with the beads immobilizing (His)6-tagged peptides in a total volume of 0.5 ml of buffer B for 2 hr at 4° C. on a rotating shaker, and washed three times with buffer B. The washed beads were mixed with 20 μl of 2× sampling buffer [100 mM Tris/HCl (pH6.8), 200 mM DTT, 4% (w/v) SDS, 0.2% bromophenol blue, and 20% (v/v) glycerol] and boiled. The supernatant was submitted to Tris/Tricine SDS-PAGE, followed by immunoblotting analysis with 1/5000 anti-FLAG monoclonal antibody M2 (Sigma).

[3] = test system: F11 cells transfected with V642I-APP cDNA; experiment: F11 cell death by V642I-APP transfection (Trypan blue exclusion); type: cell-based; details: for potency of cytoprotection against V642I-APP relative to HN: times higher than that of HN
Description: (§5) In one assay, transfection with V642I-APP causes cell death in F11 neuronal hybrid cells. In the other, treatment with Aβ peptides causes cell death in primary cultured cortical neurons.
as §1

[4] = Apparent stability of peptides in the culture medium; type: physicochemical; details: 72-hr incubation of 10 μM peptides in the cultured medium; data not shown
Description: The Ser^7 residue plays a role different from that of Ser^14. S7A substitution nullified the action of HN, while Ser^7 racemation had no influence. […] Given the fact that EFLIVIKS or EFLIVKS is the established amino acid sequence to form a dimer and that EFLIVIKS alone had no cytoprotective action, it is most likely that Ser^7 is essential for HN to self-dimerize and that self-dimerization of HN is essential for the action of HN. […] This level of stability alterations could not account for the drastic potentiation of the rescue action by the fusion with EFLIVIKS.

[5] = test system: primary cultured neurons treated with 25 μM Aβ1-43; type: cell-based; details: for concentration of full neuroprotection against Aβ1-43 / suppression of Aβ neurotoxicity in the presence of 100 μM EFLIVIKS: 25 μM Aβ1-43; for suppression of Aβ neurotoxicity in the presence of 100 μM EFLIVIKS: EF-HN and EF-HNG at 10 μM, WST-8 and Calcein assays
Experimental: as §5, §2
Calcein assay was performed with Calcein-AM {3′,6′-di-(O-acetyl)-2′,7′-bis [N,N-bis(carboxymethyl)aminomethyl] fluorescein, tetraacetoxymethyl ester; Dojindo}, as described previously. These assays were simultaneously performed in the experiments with neurons seeded in 96-well plates, as follows. Seventy-two hours after Aβ treatment, cells were added with the mixture of 10 μl WST-8 solution and 1 μl of 600 μM Calcein-AM. After 2 hr incubation in a CO2 incubator at 37° C., WST-8 absorbance was measured as OD450. After exchanging the medium to PBS to lower the background, Calcein-specific fluorescence (ex=485 nm, em=535 nm) was observed by fluorescence microscopy or measured by a spectrofluorometer (Wallac1420 ARVOsx Multi Label Counter). Most cell viability data using Calcein assay and WST-8 assay were obtained from neurons seeded at 5×10^4 cells/well in 96-well plates (high-density neurons) and confirmed by both assays with the cells seeded at 2.5×10^4 cells/well (low-density neurons).
Some experiments for Calcein assay were performed with neurons seeded in 24-well plates. […] In most experiments using primary neurons, four independent experiments were performed and the means? S. D. of the results were discussed.

[6] = test system: F11 cells transfected with V642I-APP, NL-APP, M146L-PS1 or N141I-PS2 cDNA; type: cell-based, rat/mouse hybrid
Description: as §1

[7] = test system: Aβ and four FAD genes (V642I-APP, NL-APP, M146L-PS1, and N141I-PS2); type: cell-based
Description: as §1, §2, §3

[8] = test system: V642I-APP, NL-APP, M146L-PS1, N141I-PS2 holoprotein expression in F11 cells; experiment: Immunoblot analysis of transfected FAD gene expression; type: cell-based, rat/mouse hybrid; details: F11 cells treated with peptide
Experimental: Immunoblot analysis was performed as described. For the analysis of transfected FAD gene expression, lysates (20 μg/lane) from cells transfected with each FAD gene (V642I-APP, NL-APP, M146L-PS1, N141I-PS2) were submitted to SDS-PAGE and were electrically blotted to a PVDF sheet. After blocking, the sheet was soaked with antibodies [for APP mutants: 5 μg/ml 22C11 (CHEMICON, Temecula, Calif.); for PS1 mutant: 1/2000 of anti-PS1 N-terminus antibody (CHEMICON) for PS2 mutant: 1/500 of anti-PS2 antibody (Cell Signaling Technology, Beverly, Mass.)] and then with HRP-labeled secondary antibodies. The antigenic bands were visualized by ECL (Amersham Pharmacia Biotech, Uppsala, Sweden).

[9] = test system: Aβ and four FAD genes (V642I-APP, NL-APP, M146L-PS1, and N141I-PS2); details: cited from earlier work
[10] = biological target: T1, HN (self-dimerization) (Homo sapiens, UniProt Q8IVG9, S7A); experiment: Dimerization experiment (Ni-bead precipitation of FLAG-tagged peptide by (His)6-tagged peptide); type: binding; details: excess amounts of competitor
T1 construct: host or cells: chemically synthesised peptide (no expression host)
T1 sequence (Q8IVG9 with tags, fused parts or gaps S7A): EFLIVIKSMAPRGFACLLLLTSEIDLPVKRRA
Experimental: as §4

[11] = biological target: T2, HN (self-dimerization) (Homo sapiens, UniProt Q8IVG9); experiment: as above; type: binding; details: excess amounts of competitor
T2 construct: host or cells: chemically synthesised peptide (no expression host)
Experimental: as §4

## EFLIVIKSMAPRGFACLLLLTSEIDLPVKRRA [EF-(S7A)HN]
[1]
  Full protection (minimal concentration that exerted full cytoprotection): ˜100 nM
[2]
  self-dimerization / complex formation (in words): self-dimerizes through the EFLIVIKS region
[3]
  IC50: 1 nM
  potency of cytoprotection against V642I-APP relative to HN: about 100 times
[3]; F11 cells
  concentration of full cytoprotection / complete suppression against V642I-APP: 100 nM
[4]
  amount of peptide relative to the amount at time zero: virtually unaltered
[5]
  IC50: ~10 nM
  concentration of full neuroprotection against Aβ1-43: 100 nM
  suppression of Aβ neurotoxicity in the presence of 100 μM EFLIVIKS: could not suppress Aβ neurotoxicity at all

## EFLIVIKSMAPRGFSCLLLLTGEIDLPVKRRA [EF-HNG]
[6]; each of V642I-APP, read-out: IC50 of suppression of neuronal cell death by FAD genes
  IC50: ~0.01 nM
[7]
  IC50: 0.01 to 0.1 nM
[7]; Table 5, marked *
  Full protection (minimal concentration that exerted full cytoprotection): ˜1 nM
[4]
  amount of peptide relative to the amount at time zero: virtually unaltered
[5]
  concentration of full neuroprotection against Aβ1-43: 1 nM
  suppression of Aβ neurotoxicity in the presence of 100 μM EFLIVIKS: could fully suppress Aβ neurotoxicity
[5]; both Calcein fluorescence and WST-8 absorbance assays, read-out: IC50 of cytoprotection against Aβ1-43
  IC50: ~0.1 nM

## EFLIVIKSMAPRGFSCLLLLTSEIDLPVKRRA [EF-HN]
[1]
  Full protection (minimal concentration that exerted full cytoprotection): ˜100 nM
[3]
  potency of cytoprotection against V642I-APP relative to HN: about 100 times
[4]
  amount of peptide relative to the amount at time zero: virtually unaltered
[5]
  suppression of Aβ neurotoxicity in the presence of 100 μM EFLIVIKS: could fully suppress Aβ neurotoxicity
[5]; times as high as / higher than authentic HN
  potency of neuroprotection against Aβ relative to HN: about 100 times

## MAPAGASCLLLLTGEIDLPVKRRA [AGA-HNG, reference compound]
[7]
  concentration of full cytoprotection: 100 to 300 pM
[7]; Table 5, marked *
  Full protection (minimal concentration that exerted full cytoprotection): 100 to 300 pM
[8]
  CMV-promoter-driven expression of V642I-APP, NL-APP, M146L-PS1, or N141I-PS2 holoprotein: little or only marginal alteration
[9]; previously reported [16]
  augmentation of the potency of HNG by Ala substitution at both Arg4 and Phe6: 3-10 times
  concentration of full neuroprotection: 100 to 300 pM

## MAPRGFACLLLLTSEIDLPVKRRA [S7A HN]
[6]; V642I-APP
  cytoprotective action against FAD genes (in words): no effect
[7]; Table 5, marked *
  Full protection: NE* (the corresponding peptide had no cytoprotective effect at 10 μM)
[7]; Table 5, marked *, read-out: IC50
  IC50: > 10000 nM
[2]
  self-dimerization / complex formation (in words): little activity for self-dimerization
[10]
  effect of excess competitor on EF-(S7A)HN-FLAG precipitation by (His)6-EF-(S7A)HN: not
[3]; F11 cells
  concentration up to which no cytoprotection against V642I-APP was exerted: > 10 µM
[4]
  amount of peptide relative to the amount at time zero: about ⅔
[5]; 25 μM Aβ1-43, primary neurons
  concentration up to which no neuroprotection against Aβ1-43 was exerted: > 10 µM

## PRGFSCLLLLTSEIDLP [HN17, Pro3-Pro19 region of HN]
[9]; as disclosed in [16]
  cytoprotection potency compared with authentic HN (in words): as potent in cytoprotection as authentic HN

## YMAPRGFSCLLLLTGEIDLPVKKKK [HNG-KKK, HNG with its C-terminal KRRA substituted to KKKK]
[1]
  Full protection: NE** (the corresponding peptide had no cytoprotective effect at 10 μM)
  IC50: > 10000 nM
[2]
  self-dimerization / complex formation (in words): little activity to form a complex with HN
[11]
  effect of excess competitor on HN-FLAG precipitation by (His)6-HN: no effect
[5]; 25 μM Aβ1-43, primary neurons
  concentration up to which no neuroprotection against Aβ1-43 was exerted: > 10 µM
  neuroprotective action against Aβ1-43 (in words): lost the neuroprotective action
